This is an account of results in paper PMC9144402, “An Octopus-Derived Peptide with Antidiuretic Activity in Rats” (Marine Drugs, 2022).

Positions of bridges follow the written chain, without caps; N, C: chain ends. Residues, ends and D or L forms follow the SMILES beside them. No end group written: not given here. Some results are limits rather than exact numbers.

Series [1] relates to Sprague-Dawley (SD) rats. The experiment in a line: Death and signs of toxicity after intravenous injection in SD rats. The class given is in vivo, rat. The conditions noted are these: for death or signs of toxicity: injection, 'the same doses' (AVP: data not shown).
The target in the next series is T1, human V1bR (Homo sapiens, UniProt P47901).
T1 construct: host or cells: RBL
T1 sequence (P47901 1-424): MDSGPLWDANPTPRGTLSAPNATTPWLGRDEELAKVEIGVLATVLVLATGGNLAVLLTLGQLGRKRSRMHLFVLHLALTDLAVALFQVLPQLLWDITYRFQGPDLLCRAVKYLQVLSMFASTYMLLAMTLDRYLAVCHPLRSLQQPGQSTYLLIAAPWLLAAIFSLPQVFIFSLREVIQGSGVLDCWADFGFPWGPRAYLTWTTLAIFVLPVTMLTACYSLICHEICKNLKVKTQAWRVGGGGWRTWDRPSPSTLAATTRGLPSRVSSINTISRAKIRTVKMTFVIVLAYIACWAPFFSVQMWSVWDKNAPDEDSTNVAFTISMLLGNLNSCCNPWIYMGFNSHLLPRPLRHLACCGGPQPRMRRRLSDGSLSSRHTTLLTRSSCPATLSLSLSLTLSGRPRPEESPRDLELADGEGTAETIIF
The series can be described thus: V1bR functional assay, agonist effect (intracellular Ca^2+ increase, fluorimetry, RBL cells). The class given is cell-based. The procedure: (§1) Detailed information about the cells tested and other experimental conditions are described in Table 2. Briefly, cells were transfected with a recombinant expression vector capable of expressing each type of human OXT/AVP receptor. To evaluate the agonist effects on OXTR, V1aR, and V1bR, the intracellular Ca^2+ increase after treatment with OTP or CPT was measured by fluorimetry. […] For V2R receptors, cells were treated with peptides with or without the stimulant for 30 min. After that, cyclic AMP (cAMP) concentrations were measured by homogeneous time-resolved fluorescence (HTRF). The results were represented as the percent submaximal response achieved by the stimulant. All experiments were performed in triplicate. Data are presented as the mean ± standard error of the mean. The 50% effective concentration (EC50) and 50% inhibitory concentration (IC50) values were determined using a 4-parameter logistic fitting of a dose–response curve using SigmaPlot 10.0 (Systat Software, Palo Alto, CA, USA).

The target of series [2] is T2, human OXTR (Homo sapiens, UniProt P30559).
T2 construct: host or cells: ECV304
T2 sequence (P30559 1-389): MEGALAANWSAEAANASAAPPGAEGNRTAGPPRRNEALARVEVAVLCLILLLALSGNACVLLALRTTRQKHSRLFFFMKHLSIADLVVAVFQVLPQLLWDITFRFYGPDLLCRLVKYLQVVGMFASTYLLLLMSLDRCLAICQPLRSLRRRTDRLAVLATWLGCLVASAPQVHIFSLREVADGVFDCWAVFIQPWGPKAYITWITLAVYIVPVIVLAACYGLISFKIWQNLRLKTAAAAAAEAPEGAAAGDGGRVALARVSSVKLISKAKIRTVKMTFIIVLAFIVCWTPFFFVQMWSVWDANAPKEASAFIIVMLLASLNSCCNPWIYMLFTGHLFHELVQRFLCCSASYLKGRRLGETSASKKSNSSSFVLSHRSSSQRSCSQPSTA
The series can be described thus: OXTR functional assay, antagonist effect (30 nM OXT-induced intracellular Ca^2+, fluorimetry, ECV304 cells). The class given is cell-based. The method, then: as §1

Series [3] concerns the target T3, human V1aR (Homo sapiens, UniProt P37288).
T3 construct: host or cells: CHO
The experiment in a line: V1aR functional assay, antagonist effect (10 nM AVP-induced intracellular Ca^2+, fluorimetry, CHO cells). The class given is cell-based. The method, then:
as §1

Series [4] addresses T2, human OXTR. The experiment in a line: OXTR functional assay, agonist effect (intracellular Ca^2+ increase, fluorimetry, transfected ECV304 cells). The conditions noted are these: up to 50 μM, RT, % of control response (1 µM OXT), triplicate. The class given is cell-based. The method, then:
as §1

In series [5] the target is T3, human V1aR. The experiment in a line: V1aR functional assay, agonist effect (intracellular Ca^2+ increase, fluorimetry, CHO cells). The conditions noted are these: up to 50 μM, RT, % of control response (1 µM AVP), triplicate. The class given is cell-based. The procedure: as §1
In series [6] the test system is HEK293T human kidney cells. The series can be described thus: CCK-8 cell viability assay and morphology, HEK293T. The class given is cell-based. To be noted: for viable HEK293T cells: CCK-8, 0.1–50 μM, triplicate. The procedure: Human kidney HEK293T cells were obtained from the American Type Culture Collection (ATCC, Manassas, VA, USA). The 293T cells were grown in DMEM supplemented with 10% fetal bovine serum (HyClone, Logan, UT, USA) and penicillin–streptomycin. Cells were incubated at 37 °C in a humidified atmosphere with 95% air/5% CO2. HEK293T cells (5 × 10^3) were incubated in 96-well plates to measure cell viability using a Cell Counting Kit-8 (CCK-8; Dojindo Laboratories, Kumamoto, Japan). After overnight incubation, the medium was changed to fresh medium containing CPT at doses of 50~0.1 μM in three wells each. Then, the cells were incubated for 24, 48, or 72 h and photographed under a phase-contrast microscope. We added 100 μL of fresh medium and 10 μL of CCK-8 solution to each well. After incubation for 3 h at 37 °C, the optical density (OD) at 450 nm was measured using a Spectramax i3x instrument (Molecular Devices, San Jose, CA, USA). The cell viability was calculated as follows: cell viability (%) = (OD (experiment) − OD (blank))/(OD (control) − OD (blank)) × 100%

The next series addresses T4, human V2R (Homo sapiens, UniProt P30518).
T4 construct: host or cells: CHO
The experiment in a line: V2R functional assay, agonist effect (cAMP accumulation, HTRF, CHO cells). The class given is cell-based. The method, then: as §1
Background: Cyclic AMP is a second messenger, typically raised through Gs and lowered through Gi signalling.

For series [7] the following is noted: administered intravenously; no reference printed ('generally known'); cited from earlier work.
For the next series, the system named is V1aR. To be noted: no reference given; cited from earlier work. From the text:
(§2) Currently, desmopressin is the antidiuretic drug of choice for the treatment of excessive and/or uncontrolled urination. […] Although desmopressin is generally considered safe and efficacious in the treatment o ...

The conditions of series [8]: treatment of nocturia, enuresis, and diabetes insipidus; ref [26]; cited from earlier work.
Description: as §2

Series [9] concerns Sprague-Dawley (SD) rats. The series can be described thus: Antidiuretic experiment in SD rats (single tail intravenous injection, metabolic cage). The class given is in vivo, rat. To be noted: male rats under 200 g; single microvenous injection; n=6 for each group.
For series [10], the target named is human AVP type 2 receptor (human) (UniProt P30518).
Series [11] addresses human oxytocin receptor (human) (UniProt P30559).
The target in series [12] is T5, human AVP type 1b receptor (human) (UniProt P47901).
T5 sequence: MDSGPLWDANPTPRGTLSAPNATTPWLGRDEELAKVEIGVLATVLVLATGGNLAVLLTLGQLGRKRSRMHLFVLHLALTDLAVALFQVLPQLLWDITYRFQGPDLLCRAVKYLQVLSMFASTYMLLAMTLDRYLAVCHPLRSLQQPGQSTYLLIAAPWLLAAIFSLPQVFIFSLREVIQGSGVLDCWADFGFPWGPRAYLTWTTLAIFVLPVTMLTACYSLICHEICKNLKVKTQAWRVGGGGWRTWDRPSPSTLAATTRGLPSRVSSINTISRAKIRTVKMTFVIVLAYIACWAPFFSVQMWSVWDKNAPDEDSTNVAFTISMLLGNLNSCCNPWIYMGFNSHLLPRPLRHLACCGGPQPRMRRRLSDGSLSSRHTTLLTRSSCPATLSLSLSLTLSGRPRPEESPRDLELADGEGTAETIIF

Series [13] has as its target human vasopressin receptor V1aR (human) (UniProt P37288).
The target in series [14] is human AVP type 2 receptor (human) (UniProt P30518). This is another data set of the same source.
Series [15] addresses human oxytocin receptor (human) (UniProt P30559). This is another data set of the same source.
Setting [16] is: nanomolar level of CPT (Figure 2E, 36.55 nM), calculated by curve-fitting.

T3 sequence (P37288 whole entry): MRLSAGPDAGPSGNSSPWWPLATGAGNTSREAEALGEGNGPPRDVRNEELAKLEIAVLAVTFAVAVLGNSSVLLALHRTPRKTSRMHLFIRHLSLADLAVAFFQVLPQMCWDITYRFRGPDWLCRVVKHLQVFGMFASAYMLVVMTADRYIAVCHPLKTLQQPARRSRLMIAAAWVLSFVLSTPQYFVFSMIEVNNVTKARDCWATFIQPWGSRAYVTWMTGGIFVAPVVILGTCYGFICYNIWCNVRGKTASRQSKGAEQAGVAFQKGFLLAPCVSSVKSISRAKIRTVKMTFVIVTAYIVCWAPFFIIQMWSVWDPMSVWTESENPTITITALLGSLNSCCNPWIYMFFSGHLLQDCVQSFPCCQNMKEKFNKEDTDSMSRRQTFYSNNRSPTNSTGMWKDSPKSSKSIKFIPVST
Chain of human vasopressin receptor V1aR (human) (P37288 whole entry): as above

As for `CC[C@H](C)[C@H](NC(=O)[C@@H]1CCCN1C(=O)[C@@H]1CSSC[C@H](N)C(=O)N[C@@H](Cc2ccc(O)cc2)C(=O)N[C@@H](Cc2ccccc2)C(=O)N[C@@H](CCCNC(=N)N)C(=O)N[C@@H](CC(N)=O)C(=O)N1)C(=O)NCC(N)=O` [CPT, cephalotocin] (H-CYFRNCPIG-NH2; disulfide 1-6), the “death or signs of toxicity” value with Sprague-Dawley (SD) rats [1] is given as “did not cause any death or signs of toxicity”. In addition, the lethality result in the series on Sprague-Dawley (SD) rats [1] (single intravenous injection (1 mg/mL/kg)) is listed as “did not kill the experimental animals”. In addition, the EC50 (commonly the concentration needed to bring the measured effect to its halfway point) at human V1bR (RBL, intracellular Ca^2+, fluorimetry, RT, 4-parameter logistic fitting, triplicate) amounted to 10 nM; at human V2R (CHO, cAMP, HTRF, 30 min RT, 4-parameter logistic fitting, triplicate), 12.1 nM. Besides, the “expected V1bR activation, nanomolar level” value on human V1bR (setting [16]) is ~ 80%. Also, the IC50 (in general, the midpoint of a concentration-inhibition curve) against human OXTR [2] (ECV304, stimulant 30 nM OXT, RT, fluorimetry, 4-parameter logistic fitting, triplicate) is > 50000 nM; against human V1aR [3], 1230 nM. In addition, the “expected effect on OXTR, nanomolar level” value on human OXTR [2] (setting [16]) was < 20%. Further, the inhibition (usually how much of the control response was suppressed) at 1.65 µM at human V1aR [3] (CHO, micromolar level (Figure 2F, 1.65 μM), calculated by curve-fitting, read-out: expected V1aR inhibition, micromolar level) was ≥ 50%. Also, the “expected effect on V1aR, nanomolar level” value on human V1aR [3] (setting [16]) was < 20%. Further, the “OXTR-mediated intracellular Ca^2+ increase (agonist effect)” value at human OXTR [4] was “not activated”. Moreover, the “V1aR-mediated intracellular Ca^2+ increase (agonist effect)” value on human V1aR [5] is “not activated”. In series [6], the cell morphology result is given as “unchanged”. For the same molecule, the “viable HEK293T cells” value in series [6] (24 h after treatment) and in [6] (48 h after treatment) was “Over 98%” throughout. Also, the “expected V2R activation, nanomolar level” value on human V2R (setting [16]) is on record as ~ 80%.

For the molecule “Mpr-YFQNCP(D-Arg)G-NH2 (disulfide bond) (disulfide) [Desmopressin, 1-deamino-8-D-arginine vasopressin, positive control]”, in the series on Sprague-Dawley (SD) rats [1], the “death or signs of toxicity” value is “did not cause any death or signs of toxicity”. The half-life entry in [7] is “several hours”. Also, in the series on V1aR, the V1aR-mediated pressor activity entry is listed as “low”. In addition, in series [8], the serious adverse effect entry is “hyponatremia”. In addition, the “osmolarity (in words)” value in the series on Sprague-Dawley (SD) rats [9] is “no change”.

B1: Cephalotocin (peptide)
peptide: CYFRNCPIG-NH2
modifications: disulfide 1-6; N-terminus assumed
SMILES: CC[C@H](C)[C@H](NC(=O)[C@@H]1CCCN1C(=O)[C@@H]1CSSC[C@H](N)C(=O)N[C@@H](Cc2ccc(O)cc2)C(=O)N[C@@H](Cc2ccccc2)C(=O)N[C@@H](CCCNC(=N)N)C(=O)N[C@@H](CC(N)=O)C(=O)N1)C(=O)NCC(N)=O
For B1, the EC50 of V2R-mediated cAMP accumulation (agonist effect) in CHO cells expressing human V2R, HTRF in series [10] is 12.1 nM. The IC50 of the antagonist effect on intracellular Ca^2+ release induced by 30 nM OXT in ECV304 cells expressing human OXTR (pair blocked: OXT and OXTR) in series [11] is > 50000 nM. Besides, in series [12], the EC50 of V1bR-mediated intracellular Ca^2+ release (agonist effect) in RBL cells expressing human V1bR, fluorimetry was 10 nM. The molecule also had an IC50 of the antagonist effect on intracellular Ca^2+ release induced by 10 nM AVP in CHO cells expressing human V1aR (pair blocked: AVP and V1aR) in [13] of 1230 nM.

B2: Octopressin (peptide)
peptide: CYWTSCPIG-NH2
modifications: disulfide 1-6; N-terminus assumed
SMILES: CC[C@H](C)[C@H](NC(=O)[C@@H]1CCCN1C(=O)[C@@H]1CSSC[C@H](N)C(=O)N[C@@H](Cc2ccc(O)cc2)C(=O)N[C@@H](Cc2c[nH]c3ccccc23)C(=O)N[C@@H]([C@@H](C)O)C(=O)N[C@@H](CO)C(=O)N1)C(=O)NCC(N)=O
For B2, the V2R-mediated cAMP accumulation (agonist effect) in CHO cells expressing human V2R, percent of the control response at 50 μM OTP in series [14] was < 30%. Moreover, in series [15], the antagonist effect on intracellular Ca^2+ release induced by 30 nM OXT in ECV304 cells expressing human OXTR (pair blocked: OXT and OXTR), inhibition rate at 50 μM OTP worked out at 30%.
